Test results: PMC6152655, “Determination and Pharmacokinetic Study of Three Diterpenes in Rat Plasma by UHPLC-ESI-MS/MS after Oral Administration of Rosmarinus officinalis L. Extract” (Molecules : A Journal of Synthetic Chemistry and Natural …, 2017)
Like-named read-outs stand apart in the source and are kept apart here.

What was measured:
[1] = Stability of the three diterpenes in rat plasma under different storage conditions; type: in vitro ADME; settings: n = 6; for Stability (% RE) Post-Preparative: extracted samples, 12 h at 4 °C; for Stability (% RE) Long-Term / Stability (% RE) Short-Term / Stability (% RE) Freeze-Thaw: rat plasma; for Stability (% RE) Long-Term: 2 weeks at −20 °C; for Stability (% RE) Short-Term: room temperature 4 h; for Stability (% RE) Freeze-Thaw: three freeze (−20 °C)-thaw cycles
Procedure: The stability of the three diterpenes was assessed under various conditions (Table 4). […] Moreover, all the investigated compounds were stable for 2 weeks when kept frozen at −20 °C. The stability including cycles of freeze-thaw stability (three freeze at −20 °C and thaw cycles), room temperature stability (storage for 4 h at ambient temperature), long-term stability (storage for 2 weeks at −20 °C), post-preparation stability (storage for 12 h after sample preparation at 4 °C) were tested at LQC, MQC, HQC levels with six replicates at each level. The results were compared with those for freshly prepared QC samples and the percentage concentration deviation was calculated. The accuracy should be within ± 15% in freshly prepared samples. All the testing QC samples of stability were determined by using the calibration curve of freshly prepared standard samples.

[2] = Pharmacokinetic study in rats after oral administration of R. officinalis extract (UHPLC-ESI-MS/MS of plasma); type: in vivo, Sprague-Dawley (SD) rats; design: Cmax: unit: ng/mL; settings: for Cmax / AUC(0-inf) / AUC(0-t) / Tmax / half-life: rat plasma, n = 6; for concentration at 0.5 h: plasma sample obtained at 0.5 h from a rat after oral administration of rosemary extract (Figure 2C)
Procedure: The validated method was successfully applied to pharmacokinetic studies of three diterpenes components after oral administration of rosemary at three different doses (0.25, 0.82, 2.45 g/kg). […] Therefore, we set low, medium and high doses in this study.
The main pharmacokinetic parameters of the analytes were calculated with DAS 2.0 (Shanghai, China) by non-compartmental analysis.
For the preparation of the extract, 100 g of dried leaves of R. officinalis were extracted under reflux with 1 L ethanol-water (80:20, v/v) for three times, 1 h for each time, and then filtrated. The combined filtrate was evaporated to dryness, and the residue was dissolved in water to get a concentration equivalent to 0.1 g/mL of the R. officinalis extract.
Male Sprague-Dawley (SD) rats (body weight 220 ± 50 g) were purchased and adapted under 65% RH, 23–27°C. […] Eighteen rats were randomly divided into low (0.24 g/kg), medium (0.82 g/kg), high (2.45 g/kg) dose groups. The SD rats were fasted for 12 h before experiment, had free access to water even during the experiment. The blood (0.25 mL) was collected from the orbital venous plexus at 0.08, 0.25, 0.50, 1, 1.5, 2, 3, 4, 6, 8, 12 and 24 h after oral administration of R. officinalis extract. The plasma was immediately acquired by centrifugation at 4 °C and stored frozen at −20 °C until analysis.
Before the experiment, the plasma samples stored in −20 °C were thawed naturally at room temperature. Using the optimized method, 50 μL of I.S. (2120 ng/mL), 100 μL of methanol and 100 μL of 1 mol/L HCl were added to 100 μL of plasma sample followed with vortex-mixed for 30 s. The mixed sample was extracted with 3 mL of ethyl acetate by being vortex-mixed for 1 min. The upper organic layer was removed and evaporated to dryness under a stream of nitrogen at 40 °C after centrifuging at 3800 rpm for 5 min. The residue was reconstituted with 100 μL of acetonitrile-water (40:60, v/v), and then vortex-mixed for 2 min and filtered by a 0.22 μm membrane. 10 μL of the subsequent filtrate were injected into the UHPLC-ESI-MS/MS system [20].
The maximum plasma concentration (Cmax) and the time of maximum plasma concentration (tmax) were observed directly from the measured data. The elimination rate constant (Ke) was calculated by linear regression of the terminal points in a semi-log plot of the plasma concentration against time. The elimination half-life (t1/2) was calculated using the formula t1/2 = 0.693/Ke. The area under plasma concentration-time curve (AUC0→t) to the last measurable plasma concentration (Ct) was estimated by using the linear trapezoidal rule. The area under the plasma concentration-time curve to time infinity (AUC0→∞) was calculated as AUC0→∞ = AUC0→t + Ct/Ke. Pharmacokinetic parameters of the analytes were calculated with DAS 2.0 (Shanghai, China) by non-compartmental analysis.

[3] = design: method as in PMID 19309757; settings: rat, monomeric compound (purity ≥ 98%) instead of extract; cited from earlier work
[4] = high QC (25,800/3488/4080 ng/mL)
[5] = low QC (21.50/2.910/3.400 ng/mL)
[6] = medium QC (1075/145.3/170.0 ng/mL)
[7] = low QC (21.50/2.910/3.400 ng/mL carnosic acid/carnosol/rosmanol)
[8] = male, Sprague-Dawley, rat, plasma, po, 0.24 g/kg, oral R. officinalis extract 0.24 g/kg (low dose), read-out: Cmax
[9] = male, Sprague-Dawley, rat, plasma, po, 0.82 g/kg, oral R. officinalis extract 0.82 g/kg (medium dose), read-out: Cmax
[10] = male, Sprague-Dawley, rat, plasma, po, 2.45 g/kg, oral R. officinalis extract 2.45 g/kg (high dose), read-out: Cmax
[11] = male, Sprague-Dawley, oral R. officinalis extract 0.24 g/kg (low dose)
[12] = male, Sprague-Dawley, oral R. officinalis extract 0.82 g/kg (medium dose)
[13] = male, Sprague-Dawley, oral R. officinalis extract 2.45 g/kg (high dose)

SMILES | Stability (% RE) Post-Preparative [1, 4] | Stability (% RE) Post-Preparative [1, 5] | Stability (% RE) Post-Preparative [1, 6] | Stability (% RE) Long-Term [1, 4] | Stability (% RE) Long-Term [1, 5] | Stability (% RE) Long-Term [1, 6] | Stability (% RE) Short-Term [1, 4] | Stability (% RE) Short-Term [1, 5] | Stability (% RE) Short-Term [1, 6] | Stability (% RE) Freeze-Thaw [1, 4] | Stability (% RE) Freeze-Thaw [1, 7] | Stability (% RE) Freeze-Thaw [1, 6] | Cmax [2, 8] | Cmax [2, 9] | Cmax [2, 10] | concentration at 0.5 h ([2]; male, Sprague-Dawley) | AUC(0-inf) [2, 11] | AUC(0-t) [2, 11] | Tmax [2, 11] | half-life [2, 11] | also measured
CC(C)c1cc2c(c(O)c1O)[C@@]1(C(=O)O)CCCC(C)(C)[C@@H]1CC2 [Carnosic acid] | 14.83 % RE | 13.89 % RE | 14.10 % RE | 14.84 % RE | 13.78 % RE | 14.30 % RE | 14.84 % RE | 10.21 % RE | 14.80 % RE | 14.40 % RE | 14.04 % RE | 14.82 % RE | 1210 ± 344 ng/mL | 3960 ± 516 ng/mL | 27500 ng/mL | 27900 ng/mL | 14900 ng·h/mL | 9140 ± 1500 ng·h/mL | 0.3 ± 0.11 h | 8.02 ± 2.08 h | AUC(0-inf) [2, 12]: 40000 ng·h/mL; AUC(0-t) [2, 12]: 28500 ng·h/mL; Tmax [2, 12]: 0.3 ± 0.11 h; half-life [2, 12]: 12.8 ± 5.14 h; AUC(0-inf) [2, 13]: 181000 ng·h/mL; AUC(0-t) [2, 13]: 146000 ng·h/mL; Tmax [2, 13]: 0.5 ± 0.31 h; half-life [2, 13]: 12.8 ± 1.23 h; Tmax [3]: 2.17 h
CC(C)c1cc2c(c(O)c1O)[C@@]13CCCC(C)(C)[C@@H]1C[C@@H]2OC3=O [Carnosol] | 2.09 % RE | 2.32 % RE | 0.66 % RE | −0.48 % RE | 3.10 % RE | 14.49 % RE | −0.79 % RE | 8.07 % RE | −8.67 % RE | 0.30 % RE | 5.39 % RE | 8.40 % RE | 217 ± 53.1 ng/mL | 413 ± 42.6 ng/mL | 1480 ± 266 ng/mL | 1830 ng/mL | 1820 ± 327 ng·h/mL | 1470 ± 190 ng·h/mL | 0.4 ± 0.13 h | 12.3 ± 2.36 h | AUC(0-inf) [2, 12]: 7360 ± 2740 ng·h/mL; AUC(0-t) [2, 12]: 3190 ± 316 ng·h/mL; Tmax [2, 12]: 0.27 ± 0.15 h; half-life [2, 12]: 13.9 ± 6.95 h; AUC(0-inf) [2, 13]: 17400 ng·h/mL; AUC(0-t) [2, 13]: 14000 ng·h/mL; Tmax [2, 13]: 0.7 ± 0.45 h; half-life [2, 13]: 12.8 ± 3.15 h; Cmax ([2]; oral R. officinalis extract 0.24 g/kg (low dose)): 216.56 ± 53.09 ng/mL; Cmax ([2]; oral R. officinalis extract 0.82 g/kg (medium dose)): 413.34 ± 42.59 ng/mL
CC(C)c1cc2c(c(O)c1O)[C@@]13CCCC(C)(C)[C@@H]1[C@H](OC3=O)[C@H]2O [Rosmanol] | 4.60 % RE | −0.30 % RE | −7.65 % RE | 9.17 % RE | 7.17 % RE | −8.56 % RE | 0.65 % RE | 5.01 % RE | −8.16 % RE | −0.07 % RE | 4.65 % RE | −7.12 % RE | 77.2 ± 10.5 ng/mL | 188 ± 75.9 ng/mL | 633 ± 118 ng/mL | 568 ng/mL | 552 ± 130 ng·h/mL | 460 ± 54.9 ng·h/mL | 0.25 h | 8.88 ± 3.52 h | AUC(0-inf) [2, 12]: 826 ± 138 ng·h/mL; AUC(0-t) [2, 12]: 678 ± 56.9 ng·h/mL; Tmax [2, 12]: 0.2 ± 0.18 h; half-life [2, 12]: 9.75 ± 2.44 h; AUC(0-inf) [2, 13]: 7980 ± 1650 ng·h/mL; AUC(0-t) [2, 13]: 5370 ± 927 ng·h/mL; Tmax [2, 13]: 0.55 ± 0.27 h; half-life [2, 13]: 15.4 ± 3.54 h; Cmax ([2]; oral R. officinalis extract 2.45 g/kg (high dose)): 633.41 ± 118.52 ng/mL
